The OPERA property sets (Mansouri et al. 2018)

Settings: not given

Structure (SMILES)	boiling point	log10 vapour pressure (mmHg)	melting point	ready biodegradability	log10 Koc (L/kg)	log10 Henry constant (atm·m³/mol)
O=C1CCCCCCC1	196 °C	-0.389	29 °C	–	–	–
CC(C)(CO)COC(=O)C(C)(C)CO	–	–	–	not readily biodegradable	–	–
CCC(C)C(C)C(C)(C)C (centres undefined)	157 °C	–	–	–	–	–
CC(=O)OCC(=O)[C@@]1(O)[C@H](OC(C)=O)C[C@H]2[C@@H]3CCC4=CC(=O)C=C[C@]4(C)[C@@]3(F)[C@@H](O)C[C@@]21C	–	–	235 °C	–	–	–
CCCNC(C)C(=O)Nc1ccccc1C (centres undefined)	–	–	37.5 °C	–	–	–
CCOC(=O)c1ccc(N)cc1	310 °C	–	92 °C	–	–	–
NC(=O)c1ccccc1N	300 °C	–	–	–	–	–
COc1ccc2c3c1O[C@H]1[C@@H](O)C=C[C@H]4[C@@H](C2)N(C)CC[C@@]341	–	–	158 °C	–	–	–
C1CSCCO1	147 °C	–	–	–	–	–
NC(=O)Nc1cccc(Cl)c1	–	–	–	–	2.01	–
CCCc1ccncc1	185 °C	–	–	–	–	–
CC[N+](C)(C)CCOC(=O)CCC(=O)OCC[N+](C)(C)CC.[Br-].[Br-]	–	–	158 °C	–	–	–
Nc1ccn([C@H]2CC[C@@H](CO)O2)c(=O)n1	–	–	218 °C	–	–	–
C=COC(=O)C=C	91 °C	–	–	–	–	–
O=C[C@H](O)CO	–	–	145 °C	–	–	–
O=[N+]([O-])c1ccc(C=NO)o1	–	–	163 °C	–	–	–
CCCC(C)(COC(N)=O)COC(N)=O	–	–	105 °C	–	–	–
CCCCCCCCCCCCCC(=O)O	326 °C	-5.85	53.9 °C	–	–	–
O=C(O)c1ccco1	231 °C	–	134 °C	–	–	–
Nc1ccc(S(=O)(=O)c2ccc([N+](=O)[O-])cc2)cc1	–	–	170 °C	–	–	–

Structure (SMILES)	boiling point	log10 vapour pressure (mmHg)	melting point	ready biodegradability	log10 Koc (L/kg)	log10 Henry constant (atm·m³/mol)
Brc1ccc2ccccc2c1	282 °C	–	59 °C	–	–	–
CCCCCCCC(=O)OC(=O)CCCCCCC	282 °C	–	-1 °C	–	–	–
C=CCC1=C(C)C(OC(=O)C2C(C=C(C)C)C2(C)C)CC1=O (centres undefined)	–	-5.92	-40 °C	not readily biodegradable	–	–
C=C(C)C(=O)OCCO	–	-0.9	–	readily biodegradable	–	–
CCCC(C)(O)C(C)(C)C (centres undefined)	170 °C	–	–	–	–	–
CC(C)NCC1CCc2cc(CO)c([N+](=O)[O-])cc2N1 (centres undefined)	–	–	148 °C	–	–	–
O=[N+]([O-])c1ccc(I)cc1	288 °C	–	175 °C	–	–	–
CCCC1CCNCC1	173 °C	–	–	–	–	–
Cc1ccc(Cl)c(OCC(O)CNC(C)(C)C)c1 (centres undefined)	–	–	221 °C	–	–	–
C=CC[C@H](C)O	116 °C	–	–	–	–	–
CC(Cl)(CCl)CCl	162 °C	–	–	–	–	–
CCCCCCCCCl	182 °C	-0.0223	-57.8 °C	readily biodegradable	–	–
Cl.Cl.NCCc1c[nH]cn1	–	–	250 °C	–	–	–
C=C(C)CCC(=C)C	114 °C	–	-75.6 °C	–	–	–
C/C=C(/C(=C/C)c1ccc(O)cc1)c1ccc(O)cc1	–	–	228 °C	–	–	–
CC(CCC(C)C)=NO	196 °C	–	–	–	–	–
FC(F)C(F)(F)OCC(F)(F)F	56.2 °C	2.33	–	–	–	–
Cc1nccc2ccccc12	248 °C	–	10 °C	–	–	–
CC(C)CS	88.5 °C	1.84	–	–	–	–
CN1CCN(C)C1=O	221 °C	–	8.2 °C	–	–	–

Structure (SMILES)	boiling point	log10 vapour pressure (mmHg)	melting point	ready biodegradability	log10 Koc (L/kg)	log10 Henry constant (atm·m³/mol)
COc1c(Cl)c(Cl)c(O)c(Cl)c1Cl	–	–	116 °C	–	–	–
C[C@H]1C[C@@H]2[C@H]([C@@H](O)C[C@@]3(C)[C@H]2CC[C@]3(O)C(=O)CO)[C@@]2(C)C=CC(=O)C=C12	–	–	232 °C	–	–	–
NN1CCCCC1	147 °C	–	–	–	–	–
O=C1CC(C(=O)O)CC(=O)C1=C(O)C1CC1 (centres undefined)	–	-7.76	144 °C	–	–	–
O=C(NCCO[N+](=O)[O-])c1cccnc1	–	–	92.5 °C	–	–	–
CCC(C#N)CC	146 °C	–	–	–	–	–
COC(=O)c1ccc(C)cc1O	243 °C	–	27.5 °C	–	–	–
CC(Br)C(Br)Br (centres undefined)	200 °C	–	–	–	–	–
Cc1nc2ccccc2s1	238 °C	-1.52	14 °C	–	–	–
FCC(F)(F)F	-26 °C	3.7	-101 °C	–	–	-1.3
C=COC(=O)C(C)C	104 °C	–	–	–	–	–
C=CC(O)CO (centres undefined)	196 °C	–	–	–	–	–
COC(=O)c1cc(Oc2ccc(Cl)cc2Cl)ccc1[N+](=O)[O-]	–	-7	85 °C	–	4	–
CC(=O)Oc1ccc(-c2ccccc2)cc1	–	–	89 °C	–	–	–
Cc1ccccc1CO	224 °C	–	38 °C	–	–	–
CCCCCCCCCCCCCCCCCC(=O)Cl	–	–	23 °C	–	–	–
CCCCCCCCC(Br)C(=O)O (centres undefined)	–	–	4 °C	–	–	–
CCCCC(CC)CNC1CCCCC1 (centres undefined)	270 °C	–	–	–	–	–
CC(C)(C)NC[C@H](O)COc1ccccc1C1CCCC1	–	–	70 °C	–	–	–
CN1C(=O)CC(c2ccccc2)C1=O (centres undefined)	–	–	72 °C	–	–	–

Same assay, conditions: fish

Structure (SMILES)	log10 BCF	log10 biotransformation half-life (days)
Clc1ccc(Cl)c2ccccc12	3.75	2.37
Cc1ccccc1O	1.03	-0.52
Nc1c(Cl)c(Cl)c(Cl)c(Cl)c1Cl	2.71	–
COP(=S)(OC)Oc1c(Cl)cc(C)cc1Cl	2.86	-0.11
Clc1ccc(-c2cc(Cl)c(Cl)c(Cl)c2)cc1Cl	–	2.4
CCC(C)c1ccccc1OC(=O)NC (centres undefined)	1.41	-0.52
C=CCCCCCCCCCC	–	0.83
CCCCc1cc2ccccc2c2ccccc12	–	0.29
FC(F)(Cl)C(F)(Cl)Cl	1.7	–
CCc1cc2ccccc2c2ccccc12	–	0.29
